Earlier results on three molecules are cited in publication PMC3538728 (PLoS ONE, 2013).

SMILES strings stand for the structures. pIC50: −log10 of the molar value. Where two headings read alike, the source gives them in different places.

Series [1] addresses γ-secretase. The arrangement: method as in PMID 19694467, PMID 21141968, PMID 19402777, PMID 22323718, PMID 22798753. As to conditions: cited from earlier work.
For series [2] the following is noted: cited from earlier work; for outcome in phase III clinical trials: relative to placebo.
On the set-up of series [3]: method as in PMID 19527190. The following applies: early in preclinical studies; cited from earlier work.

Broadly, the pIC50 is −log10 of the IC50, conventionally taken in molar units. `CC(C)[C@H](O)C(=O)N[C@@H](C)C(=O)N[C@@H]1C(=O)N(C)CCc2ccccc21` [semagacestat]: in series [1], the pIC50 was ~7.70. Also, the “outcome in phase III clinical trials” value is “irreversibly advance cognitive decline” in series [2]; “toxic side-effects and irreversible cognitive decline” in series [2] (listed as Semagacestat). Moreover, the tolerance entry in series [2] (preclinical studies and short phase I and phase II clinical trials) is recorded as “good tolerance”.
In the case of `C[C@H](NC(=O)[C@@H](O)c1cc(F)cc(F)c1)C(=O)N[C@@H]1C(=O)N(C)c2ccccc2-c2ccccc21` [LY-411,575, N2-[(2S)-2-(3,5-difluorophenyl)-2-hydroxyethanoyl]-N1-[(7S)-5-methyl-6-oxo-6,7-di hydro-5H-dibenzo[b,d]azepin-7-yl]-L-alaninamide], the “toxicity in preclinical studies” value in series [3] is listed as “toxic side-effects”.
For the molecule `NC(=O)[C@@H](CCC(F)(F)F)N(Cc1ccc(-c2ncon2)cc1F)S(=O)(=O)c1ccc(Cl)cc1` [avagacestat], the “outcome in phase II clinical studies” value in series [2] (phase II) is recorded as “Dose dependent cognitive decline”.
